Measurements as given in US20030206936A1, “Cosmetic composition and method of treating skin and hair” (Unilever Home & Personal Care USA, Division of Conopco, Inc., priority 2002, published 2003).

Tests used:
Type in all cases: cell-based
[1] = tested on: decorin; assay: Dot blot assay for decorin synthesis in human dermal fibroblasts; details: primary human foreskin fibroblasts, 24 hours, relative to vehicle control; effect similar to retinoic acid
Method: Procedure For Measuring Procollagen-I and Decorin Synthesis in Human Dermal Fibroblasts
Preparation of Dermal Fibroblast Conditioned Medium
Primary human foreskin fibroblasts at passage 2 (P2) were seeded into 12-well plates at 10000 cells/cm^2 and maintained for 24 hours in an atmosphere of 5% carbon dioxide and 4% oxygen in Dulbeccos Modified Eagles Medium (DMEM) supplemented with 10% foetal calf serum. After this time the cells were washed with serum free DMEM and then incubated in fresh serum free DMEM for a further 60 hours. The fibroblast monolayers were then washed again with serum free DMEM. […] This fibroblast conditioned medium was either analyzed immediately or snap frozen in liquid nitrogen and stored at −70° C. for future analysis. The cells were then counted and data from the dot-blot analysis subsequently standardized to cell number. […]
Following this the Immobilon strips were again washed with TBS/Tween 20 (3×5 minutes) before being allowed to dry in air at room temperature. […] Dot intensity was assessed by computer-assisted image TM analysis using the quantification tools in ImageQuant™, standardized to cell number and the effects of various test reagents on decorin and procollagen-I synthesis were determined relative to a vehicle treated control value of 100 arbitrary units.

[2] = biological target: T1, PPARα (Homo sapiens, UniProt Q07869); assay: Reporter gene assay (PPARα) in transfected Cos-7 cells; details: 10 μM, 24 hours
T1 construct: expressed in transfected cells; host or cells: Cos-7 cells (ECACC No. 87021302), transient transfection with LipofectAMINE
T1 sequence (Q07869 1-468): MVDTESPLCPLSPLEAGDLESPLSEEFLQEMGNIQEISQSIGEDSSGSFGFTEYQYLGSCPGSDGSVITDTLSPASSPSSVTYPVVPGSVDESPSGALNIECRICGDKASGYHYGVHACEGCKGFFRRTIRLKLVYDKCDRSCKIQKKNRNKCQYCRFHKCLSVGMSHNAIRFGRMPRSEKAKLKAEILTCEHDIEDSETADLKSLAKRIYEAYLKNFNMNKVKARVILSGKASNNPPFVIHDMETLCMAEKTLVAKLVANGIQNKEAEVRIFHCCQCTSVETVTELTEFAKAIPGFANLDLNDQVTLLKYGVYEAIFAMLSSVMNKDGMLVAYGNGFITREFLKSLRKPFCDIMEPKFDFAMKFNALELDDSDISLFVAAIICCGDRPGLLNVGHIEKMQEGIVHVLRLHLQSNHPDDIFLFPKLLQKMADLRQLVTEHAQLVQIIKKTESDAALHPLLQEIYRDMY
Method: The following assay protocol is responsive to ligands of PPARα or retinoid X receptor.
Reporter Gene Assay Protocol
Cos-7 cells (ECACC No. 87021302) were routinely grown in DMEM with 10% FCS (foetal calf serum) at 37° C., 5% CO2 to 80% confluency. Transient transfections were performed as described by the manufacturers (GibcoBRL). Briefly, cells were plated out in 24 well plates at 50,000 cells per well and incubated overnight in DMEM with 10% FCS at 37° C., 5% CO2,. Cells were then transfected using the LipofectAMINE reagent. For each well, 0.5 μg of DNA mix (for “control” cells pPPRE3TK-luc 0.40 μg; pRL-TK 0.04 μg; pcDNA3.1(−) 0.03 μg; pRSV 0.03 μg; for “plus RXRα” cells pPPRE3TK-luc 0.40 μg; pRL-TK 0.04 μg; pcDNA3.1(−) 0.03 μg; pRSV/RXRα 0.03 μg; for “plus PPARα” cells pPPRE3TK-luc0.40 μg; pRL-TK 0.04 μg pcDNA3.1(−)/PPARα 0.03 μg pRSV 0.03 μg) in 25 μl of DMEM was incubated with 1 μl LipofectAMINE, also in 25 μl of DMEM for 45 minutes.
The mixture was then made up to 250 μl per well and added to the cells, which had been washed with 1 ml of DMEM. Cells were then incubated for 5 hours at 37° C., 5% CO2, and 250 μl DMEM with 20% SBCS (charcoal stripped bovine calf serum (Sigma)) added. Cells were allowed to recover for 18 hours at 37° C., 5% CO2 before being treated. […]

[3] = tested on: Corynebacterium A NCIMB 40928; assay: In vitro model of fatty acid catabolism by corynebacteria A (TVC, glucose and pentadecanoic acid utilisation); details: 24 h
Method: An in vitro model system, reproducing fatty acid catabolism by corynebacteria A, consisted of 250 ml baffled shake flasks, to which were added 30 ml semi-synthetic medium (see below) supplemented with fatty acid substrate (2.0 mg/ml pentadecanoic acid) and non-fatty acid substrate (0.5 mg/ml glucose). This system was employed to evaluate sargahydroquinoic acid as a potential deodorant active: to each flask (other than the control) was added and specific dose of sargahydroquinoic acid (isolated from Kombo nut oil at >90% purity), from a 25 g/l stock emulsion in semi-synthetic medium supplemented with 5.0 mg/ml Gum Arabic (formed by ultra-homogenisation at 24000 rpm for 1 min) Flasks were inoculated with fresh bacterial biomass (Corynebacterium A NCIMB 40928), pre-grown for 24 h in TSBT (see below), to give starting optical densities (A5 9 0) of ˜1.0. Following inoculation, flasks were incubated aerobically at 35°0 C., with agitation (130 rpm), and analysed at 24 h. Culture viability was determined by total viable count (TVC) analysis on TSAT plates (see below) following serial dilution in quarter-strength Ringers solution. Fatty acid concentrations were determined by capillary gas chromatography (GC) (see below), while residual glucose levels were measured with blood glucose test strips (BM-Test 1-44; Boehringer Mannheim) used in conjunction with a ReflofluxS glucose meter (Boehringer Mannheim). A ‘sub-lethal’ effect is defined as significant inhibition of fatty acid catabolism, typically greater than 50% inhibition of pentadecanoic acid utilization, without concomitant reductions in Corynebacterium A viability (≦1 log10 CFU/ml reduction) or glucose utilization (≦10% reduction). Outside one or both of these defined boundaries, the effect may be described as ‘antimicrobial’, where ‘antimicrobial’ includes both bacteriostatic & bactericidal effects. Composition of Tween-supplemented Tryptone soya broth & agar (TSBT & TSAT) used for growth & maintenance of axillary bacterial (g/l): Tryptone soya broth (30.0); Yeast Extract (Beta Lab) (10.0); Tween 80™ (1.0); ± Agar (20.0). Composition of semi-synthetic medium used in in vitro system simulating fatty acid catabolism by corynebacteria A (g/l): KH2PO, (1.6);(NH4) 2HPO4(5.0); Na2SO4 (0.38); Yeast Nitrogen Base (Difco)(3.35); Yeast Extract (Beta Lab)(0.5); Tween 80™ (0.2); Triton X-100™ (0.2); MgCl2.6H20(0.5). Fatty acid levels in the flasks were determined by capillary GC analysis. Initially, 5.0 ml aliquots from each flask were transferred into universal tubes; an internal standard (lauric acid, 1.0 mg/ml final concentration) was added to each tube and the culture medium acidified (pH ˜2) by the addition of hydrochloric acid. Liquid-liquid extraction was then carried out using 2 vol (10 ml) ethyl acetate; organic and aqueous phases were resolved by centrifugation (2000 rpm, 3 min). ˜0.75 ml of each organic (upper) phase was then transferred to a sampling vial prior to analysis on a Perkin Elmer 8000 (Series 2) GC fitted with a 15 m ×0.32 mm (internal diameter) FFAP (nitroterephalic acid modified PEG/siloxane copolymer) fused silica capillary column (film thickness […]) (Quadrex). This column was attached to the split-splitless injector and flame ionisation detector (FID) of the GC; injector and detector temperatures were each 300° C. Carrier gas for the column was helium (6 psi), while hydrogen (17 psi) and air (23 psi) supplied the FID. The temperature programme for fatty acid analysis was 80° C.(2 min); 80-250° C. (20° C./min); 250° C. (5 min). Sample size for injection was 0.5-1.0 μl . Fatty acid levels in the flasks were quantified by comparison of peak areas with known levels of both internal (lauric acid) and externally-run (pentadecanoic acid) standards.

- PPARα ligand activity in reporter gene assay (FIG. 2) [2]: is a ligand for PPARα
SMILES: CC(C)=CCC/C(=C/CC/C(C)=C/CC/C(C)=C/Cc1cc(O)cc(C)c1O)C(=O)O [Sargahydroquinoic acid]
- effect on decorin production (FIG. 1) [1]: enhances decorin production
- Glucose Utilisation ([3]; 0.05 g/l): 100%
- Pentadecanoic Acid Utilisation ([3]; 0.05 g/l): 99%
- TVC ([3]; 0.05 g/l): 8.67 log10 CFU/ml
- Glucose Utilisation ([3]; 0.1 g/l, * sub-lethal): 100* %
- Pentadecanoic Acid Utilisation ([3]; 0.1 g/l, * sub-lethal): 58* %
- TVC ([3]; 0.1 g/l, * sub-lethal): 8.83* log10 CFU/ml
- Glucose Utilisation ([3]; 0.25 g/l, * sub-lethal): >90* %
- Pentadecanoic Acid Utilisation ([3]; 0.25 g/l, * sub-lethal): 15* %
- TVC ([3]; 0.25 g/l, * sub-lethal): 7.93* log10 CFU/ml
- Glucose Utilisation ([3]; 0.5 g/l, * sub-lethal): 100* %
- Pentadecanoic Acid Utilisation ([3]; 0.5 g/l, * sub-lethal): 19* %
- TVC ([3]; 0.5 g/l, * sub-lethal): 7.85* log10 CFU/ml
- Glucose Utilisation ([3]; 1.0 g/l, antimicrobial effect): >90%
- Pentadecanoic Acid Utilisation ([3]; 1.0 g/l, antimicrobial effect): 5%
- TVC ([3]; 1.0 g/l, antimicrobial effect): 7.3 log10 CFU/ml
- Glucose Utilisation ([3]; 2.5 g/l, antimicrobial effect): 7%
- Pentadecanoic Acid Utilisation ([3]; 2.5 g/l, antimicrobial effect): 25%
- TVC ([3]; 2.5 g/l, antimicrobial effect): <3.0 log10 CFU/ml
- inhibition at 50 µg/mL ([3]; Corynebacterium, NCIMB40928, 0.05 g/l, in parentheses = not significant): 1%
- inhibition at 100 µg/mL ([3]; Corynebacterium, NCIMB40928, 0.1 g/l, * sub-lethal): 42%
- inhibition at 250 µg/mL ([3]; Corynebacterium, NCIMB40928, 0.25 g/l, * sub-lethal): 85%
- inhibition at 500 µg/mL ([3]; Corynebacterium, NCIMB40928, 0.5 g/l, * sub-lethal): 81%
- inhibition at 1000 µg/mL ([3]; Corynebacterium, NCIMB40928, 1.0 g/l, antimicrobial effect): 95%
- inhibition at 2500 µg/mL ([3]; Corynebacterium, NCIMB40928, 2.5 g/l, antimicrobial effect): 75%
